Results on 20 compounds are retold here after patent US20250197372A1 (priority 2020, published 2025).

For one experiment, the target named is T1, recombinant alpha-glucosidase I (human full-length glucosidase I, Glu 1) (Homo sapiens, UniProt Q13724).
T1 construct: 6-His (C); made in house; host or cells: HEK-293T cells transduced with BacMam virus (virus raised in Sf9)
T1 sequence (Q13724 1-837): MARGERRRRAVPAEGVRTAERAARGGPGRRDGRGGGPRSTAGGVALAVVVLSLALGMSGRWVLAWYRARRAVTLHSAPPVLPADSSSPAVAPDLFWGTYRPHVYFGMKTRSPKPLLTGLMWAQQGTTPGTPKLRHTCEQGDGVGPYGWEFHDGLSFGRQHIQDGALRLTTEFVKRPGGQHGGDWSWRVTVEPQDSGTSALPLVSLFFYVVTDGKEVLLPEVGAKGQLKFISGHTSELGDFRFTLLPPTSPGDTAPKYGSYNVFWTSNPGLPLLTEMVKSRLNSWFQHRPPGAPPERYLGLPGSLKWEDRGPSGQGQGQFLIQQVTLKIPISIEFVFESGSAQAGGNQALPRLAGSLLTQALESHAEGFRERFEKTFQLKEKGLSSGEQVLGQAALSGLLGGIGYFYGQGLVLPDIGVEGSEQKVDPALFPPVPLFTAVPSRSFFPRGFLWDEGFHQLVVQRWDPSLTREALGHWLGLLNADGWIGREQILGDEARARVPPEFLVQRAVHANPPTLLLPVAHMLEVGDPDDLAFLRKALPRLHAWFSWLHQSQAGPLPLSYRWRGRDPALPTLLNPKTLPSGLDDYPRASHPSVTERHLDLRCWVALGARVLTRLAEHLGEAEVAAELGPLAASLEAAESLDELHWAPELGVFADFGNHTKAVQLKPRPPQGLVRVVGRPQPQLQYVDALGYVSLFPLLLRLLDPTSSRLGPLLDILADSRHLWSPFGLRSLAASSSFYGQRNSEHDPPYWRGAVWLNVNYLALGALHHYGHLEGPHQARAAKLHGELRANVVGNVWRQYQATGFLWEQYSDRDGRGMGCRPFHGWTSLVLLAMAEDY
The experiment in a line: Alpha-glucosidase I assay (Amplex Red glucose detection, synthetic trisaccharide substrate). The experiment is classed as biochemical.
Details: not given
An outline of the steps: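 Human full-length glucosidase I, His-tagged, […] and Ni-purified. Enzyme preincubated with compound dilutions 60 min at 37° C, then synthetic trisaccharide substrate 90 min at 37° C; stopped with 1.5M Tris pH 8.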
For `OC[C@@H]1[C@@H](O)[C@H](O)[C@@H](O)CN1CCc1ccc(CCNc2cc(Cl)cc(-c3cccnn3)c2)cc1` [Compound 1163, (2R,3R,4R,5S)-1-{2-[4-(2-{[3-chloro-5-(pyridazin-3-yl)phenyl]amino}ethyl)phenyl]ethyl}-2-(hydroxymethyl)piperidine-3,4,5-triol], the IC50 (usually the concentration that inhibits the measured activity by half) was 211 nM.

The experiment is the same for the next values; noted with them: Glucosidase 1; read-out: Glu 1 IC50.
Consider `COc1cc(NCCCCCCN2C[C@H](O)[C@@H](O)[C@H](O)[C@H]2CO)cc(C2=CCCCC2)c1` [Compound 1149, (2R,3R,4R,5S)-1-(6-{[3-(cyclohex-1-en-1-yl)-5-methoxy-phenyl]amino}hexyl)-2-(hydroxymethyl)piperidine-3,4,5-triol], for which the IC50 was found to be 264 nM.

On to `COc1cc(NCCCCCCN2C[C@H](O)[C@@H](O)[C@H](O)[C@H]2CO)cc(-c2ccccc2)c1` [Compound 1150, (2R,3R,4R,5S)-2-(hydroxymethyl)-1-[6-({5-methoxy-[1,1′-biphenyl]-3-yl}amino)hexyl]piperidine-3,4,5-triol], for which the IC50 stood at 80 nM.

For `CC(C)(C)c1cc(NCCCCCCN2C[C@H](O)[C@@H](O)[C@H](O)[C@H]2CO)cc(-c2ncccn2)c1` [Compound 1151, (2R,3R,4R,5S)-1-(6-{[3-tert-butyl-5-(pyrimidin-2-yl)phenyl]amino}hexyl)-2-(hydroxymethyl)piperidine-3,4,5-triol], the half-maximal inhibitory concentration (IC50) turned out to be 99 nM.

Take `COc1cc(NCCc2ccc(CCN3C[C@H](O)[C@@H](O)[C@H](O)[C@H]3CO)cc2)cc(-c2ccco2)c1` [Compound 1153, (2R,3R,4R,5S)-1-{2-[4-(2-{[3-(furan-2-yl)-5-methoxy-phenyl]amino}ethyl)phenyl]ethyl}-2-(hydroxymethyl)piperidine-3,4,5-triol]: the IC50 turned out to be 1360 nM.

Take `COc1cc(NCCc2ccc(CCN3C[C@H](O)[C@@H](O)[C@H](O)[C@H]3CO)cc2)cc(C2=CCOCC2)c1` [Compound 1154, (2R,3R,4R,5S)-1-{2-[4-(2-{[3-(3,6-dihydro-2H-pyran-4-yl)-5-methoxyphenyl]amino}ethyl)phenyl]ethyl}-2-(hydroxymethyl)piperidine-3,4,5-triol]: the IC50 amounted to 919 nM. On the same count and under the same terms, to `COc1cc(NCCc2ccc(CCN3C[C@H](O)[C@@H](O)[C@H](O)[C@H]3CO)cc2)cc(C2=COCCO2)c1` [Compound 1155, (2R,3R,4R,5S)-1-{2-[4-(2-{[3-(5,6-dihydro-1,4-dioxin-2-yl)-5-methoxyphenyl]amino}ethyl)phenyl]ethyl}-2-(hydroxymethyl)piperidine-3,4,5-triol] belongs 1250 nM; to `COc1cc(NCCc2ccc(CCN3C[C@H](O)[C@@H](O)[C@H](O)[C@H]3CO)cc2)cc(-c2ncccn2)c1` [Compound 1156, (2R,3R,4R,5S)-2-(hydroxymethyl)-1-{2-[4-(2-{[3-methoxy-5-(pyrimidin-2-yl)phenyl]amino}ethyl)phenyl]ethyl}piperidine-3,4,5-triol], 1270 nM; to `COc1cc(NCCc2ccc(CCN3C[C@H](O)[C@@H](O)[C@H](O)[C@H]3CO)cc2)cc(-c2cccnn2)c1` [Compound 1157, (2R,3R,4R,5S)-2-(hydroxymethyl)-1-{2-[4-(2-{[3-methoxy-5-(pyridazin-3-yl)phenyl]amino}ethyl)phenyl]ethyl}piperidine-3,4,5-triol], 336 nM.

As for `OC[C@@H]1[C@@H](O)[C@H](O)[C@@H](O)CN1CCc1ccc(CCNc2cc(Cl)cc(-c3ccco3)c2)cc1` [Compound 1159, (2R,3R,4R,5S)-1-{2-[4-(2-{[3-chloro-5-(furan-2-yl)phenyl]amino}ethyl)phenyl]ethyl}-2-(hydroxymethyl)piperidine-3,4,5-triol], the IC50 came to 183 nM. Still for that read-out and setting: to `OC[C@@H]1[C@@H](O)[C@H](O)[C@@H](O)CN1CCc1ccc(CCNc2cc(Cl)cc(C3=CCOCC3)c2)cc1` [Compound 1160, (2R,3R,4R,5S)-1-{2-[4-(2-{[3-chloro-5-(3,6-dihydro-2H-pyran-4-yl)phenyl]amino}ethyl)phenyl]ethyl}-2-(hydroxymethyl)piperidine-3,4,5-triol] belongs 1570 nM. Regarding `OC[C@@H]1[C@@H](O)[C@H](O)[C@@H](O)CN1CCc1ccc(CCNc2cc(Cl)cc(C3=COCCO3)c2)cc1` [Compound 1161, (2R,3R,4R,5S)-1-{2-[4-(2-{[3-chloro-5-(5,6-dihydro-1,4-dioxin-2-yl)phenyl]amino}ethyl)phenyl]ethyl}-2-(hydroxymethyl)piperidine-3,4,5-triol], the concentration for half-maximal inhibition (IC50) was 729 nM.

With `OC[C@@H]1[C@@H](O)[C@H](O)[C@@H](O)CN1CCc1ccc(CCNc2cc(Cl)cc(-c3ncccn3)c2)cc1` [Compound 1162, (2R,3R,4R,5S)-1-{2-[4-(2-{[3-chloro-5-(pyrimidin-2-yl)phenyl]amino}ethyl)phenyl]ethyl}-2-(hydroxymethyl)piperidine-3,4,5-triol], the concentration for half-maximal inhibition (IC50) came out at 508 nM. Still for that read-out and setting: to `[N-]=[N+]=Nc1ccc(NCc2ccc(-c3ccc(CN4C[C@H](O)[C@@H](O)[C@H](O)[C@H]4CO)cc3)cc2)c([N+](=O)[O-])c1` [Compound 1166, (2R,3R,4R,5S)-1-[(4′-{[(4-azido-2-nitrophenyl)amino]methyl}-[1,1′-biphenyl]-4-yl)methyl]-2-(hydroxymethyl)piperidine-3,4,5-triol] belongs 184 nM; to `[N-]=[N+]=Nc1ccc(NCc2cccc(CN3C[C@H](O)[C@@H](O)[C@H](O)[C@H]3CO)c2)c([N+](=O)[O-])c1` [Compound 1169, (2R,3R,4R,5S)-1-[(3-{[(4-azido-2-nitrophenyl)amino]methyl}phenyl)methyl]-2-(hydroxymethyl)piperidine-3,4,5-triol], 68 nM.

`[N-]=[N+]=Nc1ccc(NCc2ccc(CN3C[C@H](O)[C@@H](O)[C@H](O)[C@H]3CO)cc2)c([N+](=O)[O-])c1` [Compound 1170, (2R,3R,4R,5S)-1-[(4-{[(4-azido-2-nitrophenyl)amino]methyl}phenyl)methyl]-2-(hydroxymethyl)piperidine-3,4,5-triol]: the IC50 was 4 nM. On the same count and under the same terms, to `[N-]=[N+]=Nc1ccc(NCCc2cc(CCN3C[C@H](O)[C@@H](O)[C@H](O)[C@H]3CO)ccc2C2CCCCC2)c([N+](=O)[O-])c1` [Compound 1171, (2R,3R,4R,5S)-1-[2-(3-{2-[(4-azido-2-nitrophenyl)amino]ethyl}-4-cyclohexylphenyl)ethyl]-2-(hydroxymethyl)piperidine-3,4,5-triol] belongs 301 nM; to `[N-]=[N+]=Nc1ccc(NCCc2ccc(CCN3C[C@H](O)[C@@H](O)[C@H](O)[C@H]3CO)c3c2OCCO3)c([N+](=O)[O-])c1` [Compound 1173, (2R,3R,4R,5S)-1-[2-(8-{2-[(4-azido-2-nitrophenyl)amino]ethyl}-2,3-dihydro-1,4-benzodioxin-5-yl)ethyl]-2-(hydroxymethyl)piperidine-3,4,5-triol], 157 nM. On the same count and under the same terms, to `[N-]=[N+]=Nc1ccc(NCc2cc(CCN3C[C@H](O)[C@@H](O)[C@H](O)[C@H]3CO)cs2)c([N+](=O)[O-])c1` [Compound 1174, (2R,3R,4R,5S)-1-[2-(5-{[(4-azido-2-nitrophenyl)amino]methyl}thiophen-3-yl)ethyl]-2-(hydroxymethyl)piperidine-3,4,5-triol] belongs 531 nM; to `[N-]=[N+]=Nc1ccc(NCCn2cc(CCN3C[C@H](O)[C@@H](O)[C@H](O)[C@H]3CO)c3ccccc32)c([N+](=O)[O-])c1` [Compound 1177, (2R,3R,4R,5S)-1-[2-(1-{2-[(4-azido-2-nitrophenyl)amino]ethyl}-1H-indol-3-yl)ethyl]-2-(hydroxymethyl)piperidine-3,4,5-triol], 374 nM.
